Experimental data taken from patent publication US8242054B2, “Plant growth regulator composition” (Snow Brand Seed Co., Ltd., priority 2008, dated 2012).

Legend:
adzuki bean section [1] = test: adzuki bean root promotion assay (section immersion treatment, adventitious roots counted); format: in vivo; details: for Relative value (%): 0/0 ppm group = 100; for Ratio to untreated group (%): untreated group = 100
Procedure: An aqueous solution of DL-phenyllactic acid (Sigma-Aldrich Japan) and L-tryptophan (Wako Pure Chemical Industries, Ltd.) was prepared so that the total concentration of the compounds was 400 ppm and adjusted to pH 7 with hydrochloric acid, and the solution was subjected to an adzuki bean root promotion assay (Itagaki et al. 2003. Biological activities and structure-activity relationship of substitution compounds of N-[2-(3-indolyl)ethyl]succinamic acid and N-[2-(1-naphthyl)ethyl]succinamic acid, derived from a new category of root-promoting substance, N-(phenethyl) succinamic acid analogs. Plant Soil 255: 67-75). The base of an adzuki section was immersed in the test solution for 72 hours, and adventitious roots generated 7 days after immersion were counted. The repetition number was 5.
To study the cooperation effect of phenyllactic acid and aromatic amino acids other than L-tryptophan, each of 1 mM of DL-phenyllactic acid (Sigma-Aldrich Japan), L-tryptophan (Wako Pure Chemical Industries, Ltd.), L-phenylalanine (Wako Pure Chemical Industries, Ltd.), and L-tyrosine (Wako Pure Chemical Industries, Ltd.), and aqueous solutions obtained by adding the amino acids to DL-phenyllactic acid were prepared, and subjected to the adzuki bean root promotion assay in the same way as in Example 1.
To compare effects of combinations of tryptophan enantiomers and phenyllactic acid enantiomers, aqueous solutions of 400 ppm of L-tryptophan, D-tryptophan (Wako Pure Chemical Industries, Ltd.), L-phenyllactic acid (Sigma-Aldrich Japan), and D-phenyllactic acid (Sigma-Aldrich Japan) were prepared. Separately, aqueous solutions of 200 ppm of each of the tryptophan enantiomers and 200 ppm of each of the […] enantiomers were prepared and subjected to the adzuki bean root promotion assay in the same way as in Example 1. […]

adzuki bean section [2] = test: as above; format: in vivo; details: for Relative value (%): 0/0 ppm group = 100; for Number of roots: 72 h immersion, counted 7 days after immersion
plants = details: background art; cited from earlier work
[3] = Table 4: each component present at 1 mM
[4] = Table 3: L-tryptophan 0 ppm, DL-phenyllactic acid 20 ppm
[5] = Table 5: single enantiomer 400 ppm
[6] = Table 3: L-tryptophan 1200 ppm, DL-phenyllactic acid 0 ppm

Row | SMILES | Number of roots (adzuki bean section [1]; [3]) | Ratio to untreated group (%) (adzuki bean section [1]; [3]) | Number of roots (adzuki bean section [1]; [5]) | Relative value (%) (adzuki bean section [1]; [5]) | further results
1 | O=C(O)C(O)Cc1ccccc1 (racemic) [DL-phenyllactic acid] | 18.8 | 132 | – | – | root promoting effect (in words) (adzuki bean section [1]; Table 1, only DL-phenyllactic acid): slight root promoting effect; Relative value (%) (adzuki bean section [1]; Table 1: L-tryptophan 0 ppm, DL-phenyllactic acid 400 ppm): 137%; Number of roots (adzuki bean section [1]; Table 1: L-tryptophan 0 ppm, DL-phenyllactic acid 400 ppm, 72 h immersion, counted 7 days after immersion): 22.4; Relative value (%) (adzuki bean section [1]; Table 2: L-tryptophan 0 ppm, DL-phenyllactic acid 400 ppm): 268%; Number of roots (adzuki bean section [1]; Table 2: L-tryptophan 0 ppm, DL-phenyllactic acid 400 ppm, 72 h immersion, counted 7 days after immersion): 32.2; Ratio to group treated with only DL-phenyllactic acid (%) (adzuki bean section [1]; Table 4: each component present at 1 mM, 1 mM DL-phenyllactic acid only = 100): 100%; Relative value (%) (adzuki bean section [2]; [4]): 107%; Number of roots (adzuki bean section [2]; [4]): 11.6
2 | O=C(O)[C@@H](O)Cc1ccccc1 [D-phenyllactic acid] | – | – | 27.6 | 192 | –
3 | N[C@H](Cc1c[nH]c2ccccc12)C(=O)O [D-tryptophan] | – | – | 24.2 | 168 | –
4 | N[C@@H](Cc1ccccc1)C(=O)O [L-phenylalanine] | 16.6 | 117 | – | – | –
5 | O=C(O)[C@@H](O)Cc1ccccc1 [L-phenyllactic acid] | – | – | 19.4 | 135 | –
6 | N[C@@H](Cc1c[nH]c2ccccc12)C(=O)O [L-tryptophan] | 19.2 | 135 | 22.2 | 154 | Relative value (%) (adzuki bean section [1]; Table 1: L-tryptophan 400 ppm, DL-phenyllactic acid 0 ppm): 113%; Number of roots (adzuki bean section [1]; Table 1: L-tryptophan 400 ppm, DL-phenyllactic acid 0 ppm, 72 h immersion, counted 7 days after immersion): 18.6; Relative value (%) (adzuki bean section [1]; Table 3: L-tryptophan 400 ppm, DL-phenyllactic acid 0 ppm): 98%; Number of roots (adzuki bean section [1]; Table 3: L-tryptophan 400 ppm, DL-phenyllactic acid 0 ppm, 72 h immersion, counted 7 days after immersion): 10.6; Relative value (%) (adzuki bean section [2]; [6]): 139%; Number of roots (adzuki bean section [2]; [6]): 15.0
7 | N[C@@H](Cc1ccc(O)cc1)C(=O)O [L-tyrosine] | 13.6 | 96 | – | – | –
8 | O=C(O)C(O)Cc1ccccc1 (stereo not shown) [phenyllactic acid, 3-phenyllactic acid] | – | – | – | – | root promoting effect on plants (in words) (plants): the effect is weak
